Values joined by “and” are separate entries in the source; they are usually repeats but may differ in a detail not shown here. Equal entries are not always repeated. Structures can show the parent of a compound that is named as a salt.
Tests used:
MMP2 (Gelatinase A) = molecular target: T1, MMP2 (Gelatinase A) (Homo sapiens, UniProt P08253); assay: MMP2 (Gelatinase A) inhibition, 14C gelatin release; type: biochemical; settings: 37° C., 16 hours; read-out: MMP-2 inhibitory activity, IC50
T1 sequence (P08253 110-660): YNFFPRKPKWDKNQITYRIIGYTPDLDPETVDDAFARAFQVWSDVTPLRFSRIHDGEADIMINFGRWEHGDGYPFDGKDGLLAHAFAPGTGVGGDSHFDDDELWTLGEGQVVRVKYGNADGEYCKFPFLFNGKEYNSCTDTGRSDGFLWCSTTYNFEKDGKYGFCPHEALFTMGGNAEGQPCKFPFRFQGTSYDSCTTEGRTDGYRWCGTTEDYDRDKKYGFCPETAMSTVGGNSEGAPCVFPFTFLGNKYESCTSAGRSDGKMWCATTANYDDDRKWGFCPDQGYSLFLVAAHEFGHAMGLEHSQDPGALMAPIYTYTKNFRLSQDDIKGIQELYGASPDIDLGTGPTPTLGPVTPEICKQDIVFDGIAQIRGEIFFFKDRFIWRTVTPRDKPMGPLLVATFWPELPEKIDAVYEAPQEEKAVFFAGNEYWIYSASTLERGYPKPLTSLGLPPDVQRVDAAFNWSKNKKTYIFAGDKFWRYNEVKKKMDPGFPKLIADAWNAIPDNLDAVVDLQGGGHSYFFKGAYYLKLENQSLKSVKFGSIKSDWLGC
Method: Protocol for Measuring MMP2 (Gelatinase A) Inhibition
MMP2 activity was determined by the release of trichloracetic acid, TCA, soluble fragments from ^14C acetylated rat skin type I gelatin (Methods in Enzymology 248, 470, 1995. Biochem. J. 195, 1981)
• 100 μg ^14C labelled gelatin (type I collagen denatured 60° C. 20 min) • 50 mM Tris HCl pH 7.9 • 15 mM CaCl2, 0.02% azide • Human recombinant MMP1, 0.1–0.5 nM • ±Tetracycline (up to 1 MM) in a total volume of 250 μl.
Incubations were set at 37° C. for 16 hours. The reaction was stopped by cooling the incubations and addition of 50 μl cold 90% (w/v) trichloracetic acid with careful mixing. TCA precipitation was allowed to proceed for 15 minutes at 4° C. prior to cetrifugation at 10,000 g for 10 minutes at 4° C. 200 μl of the TCA supernatant was taken for the determination of radioactive content by scintillation counting (Packard Opti Phase Supermix scintillation fluid). Only data derived from within the linear part of the assay (10–70% lysis) were utilized. The percentage inhibition of MMP2 by each tetracycline concentration was plotted to derive the IC50 value, using linear regression analysis.

Human recombinant MMP1 = molecular target: T2, Human recombinant MMP1 (Homo sapiens, UniProt P03956); assay: MMP1 (Collagenase-1) inhibition, 14C collagen release; type: biochemical; settings: 35° C., 5 hours; read-out: MMP-1 inhibitory activity, IC50
T2 sequence (P03956 100-469): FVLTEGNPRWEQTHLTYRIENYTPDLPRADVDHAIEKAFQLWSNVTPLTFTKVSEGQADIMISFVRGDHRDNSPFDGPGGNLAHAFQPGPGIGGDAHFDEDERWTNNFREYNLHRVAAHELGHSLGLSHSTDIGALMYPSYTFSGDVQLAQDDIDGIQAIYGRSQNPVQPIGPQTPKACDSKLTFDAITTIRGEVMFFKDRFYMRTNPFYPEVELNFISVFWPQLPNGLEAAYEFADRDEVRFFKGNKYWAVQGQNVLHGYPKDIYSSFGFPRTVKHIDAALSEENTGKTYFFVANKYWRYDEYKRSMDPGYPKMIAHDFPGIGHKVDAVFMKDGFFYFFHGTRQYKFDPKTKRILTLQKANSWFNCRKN

MAT LyLu tumor = assay: Dunning MAT LyLu tumor model, survival; type: in vivo, Copenhagen rats; settings: for Surviving Number: 10/group, dosed by gavage; for surviving number after tumor implantation (in words): compared to the control group
Method: (§2) Fresh dosing solutions containing 10 mg/ml of each test article in 2% carboxymethylcellulose were prepared daily and used in the testing.
(§3) Three groups of animals (10/group) were dosed by gavage with either vehicle, or one of the two analogs daily for three weeks, and then three times per week until death or sacrifice. Dosing was begun seven days prior to implantation of the MAT LyLu tumor cells by tail vein injection. Approximately 0.1 ml of tumor cell suspension was injected into one of the lateral tail veins. The dose to be chosen was based on two factors: (1) efficacy and (2) morbidity associated with the analog, if any.

Human recombinant MMP3 = Human recombinant MMP3 (Homo sapiens, UniProt P08254); assay: MMP3 (Stromelysin 1) inhibition, 14C casein release; type: biochemical; settings: 37° C., 16 hours; read-out: MMP-3 inhibitory activity, IC50
Chain of Human recombinant MMP3 (P08254 100-477): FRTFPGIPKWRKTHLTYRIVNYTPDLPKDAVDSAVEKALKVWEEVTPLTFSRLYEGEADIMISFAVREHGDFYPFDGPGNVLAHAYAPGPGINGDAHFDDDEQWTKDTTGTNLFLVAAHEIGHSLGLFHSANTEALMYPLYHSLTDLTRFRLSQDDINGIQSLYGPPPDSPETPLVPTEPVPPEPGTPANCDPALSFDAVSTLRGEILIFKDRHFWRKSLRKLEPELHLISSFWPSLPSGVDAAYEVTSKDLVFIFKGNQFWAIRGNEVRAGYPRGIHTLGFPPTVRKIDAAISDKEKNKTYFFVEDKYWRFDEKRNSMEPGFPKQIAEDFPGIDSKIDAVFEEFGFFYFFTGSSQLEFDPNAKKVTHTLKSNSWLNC
Method: Protocol for Measuring MMP3 (Stromelysin 1) Inhibition
• 100 μg ^14C casein (7000 dpm) • 50 mM Tris HCl, pH 7.9 • 15 mM CaCl2, 0.02% azide • Human recombinant MMP3, 0.25–1.0 nM • ±tetracycline (up to 1 mM) in a total volume of 250 μl.
Incubations were at 37° C. for 16 hours. The reaction was stopped by the addition of 500 μl cold 18% TCA and standing on ice for 15 minutes. TCA precipitates were removed by centrifugation at 10,000 g for 10 minutes at 4° C. and 200 μl supernatant was taken for scintillation counting. Only data derived from within the linear part of the assay (10–60% lysis) were utilized. The percentage inhibition of MMP3 by each concentration of the candidate tetracycline was plotted to derive the IC50 value, using linear regression analysis.

Human recombinant MMP9 = Human recombinant MMP9 (Homo sapiens, UniProt P14780); assay: MMP9 (Gelatinase B) inhibition, 14C gelatin release; type: biochemical; settings: 37° C., 16 hours; read-out: MMP-9 inhibitory activity, IC50
Chain of Human recombinant MMP9 (P14780 94-707): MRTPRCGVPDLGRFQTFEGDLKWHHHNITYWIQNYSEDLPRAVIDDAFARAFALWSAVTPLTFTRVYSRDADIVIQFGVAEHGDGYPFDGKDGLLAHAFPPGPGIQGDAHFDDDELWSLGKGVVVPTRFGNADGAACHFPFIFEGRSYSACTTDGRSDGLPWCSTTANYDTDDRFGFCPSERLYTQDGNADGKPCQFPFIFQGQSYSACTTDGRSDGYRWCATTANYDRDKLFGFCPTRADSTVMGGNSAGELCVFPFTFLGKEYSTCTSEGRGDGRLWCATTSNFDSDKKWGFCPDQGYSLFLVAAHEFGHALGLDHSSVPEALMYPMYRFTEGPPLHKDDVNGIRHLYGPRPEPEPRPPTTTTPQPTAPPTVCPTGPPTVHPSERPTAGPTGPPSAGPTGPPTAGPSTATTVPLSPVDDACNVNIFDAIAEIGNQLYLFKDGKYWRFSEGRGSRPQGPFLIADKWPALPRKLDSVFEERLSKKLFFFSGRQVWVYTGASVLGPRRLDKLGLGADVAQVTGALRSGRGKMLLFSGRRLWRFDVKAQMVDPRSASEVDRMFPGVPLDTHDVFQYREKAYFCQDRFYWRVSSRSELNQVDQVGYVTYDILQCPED
Method: Protocol for Measuring MMP9 (Gelatinase B) Inhibition
MMP9 activity was determined by the release of trichloracetic acid, TCA soluble fragments from ^14C acetylated rat skin type I (Methods in Enzymology 248, 470, 1995. Biochem. J. 195, 1981)
• 100 μg ^14C labelled gelatin (collagen denatured 60° C. 20 min) • 50 mM Tris HCl pH 7.9 • 15 mM CaCl2, 0.02% azide • Human recombinant MMP9, 1.2–2 nM • ±Tetracycline (up to 1 mM) in a total volume of 250 μl.
Incubations were at 37° C. for 16 hours. The incubations were stopped by cooling the incubations and addition of 50 μl cold 90% (w/v) trichloracetic acid with careful mixing. TCA precipitation was allowed to proceed for 15 minutes at 4° C. prior to centrifugation at 10,000 g for 10 minutes at 4° C. 200 μl of the TCA supernatant was taken for the determination of radioactive content by scintillation counting (Packard Opti Phase Supermix scintillation fluid). Only data derived from within the linear part of the assay (10–70% lysis) were utilized. The percentage inhibition of MMP9 by each tetracycline concentration were plotted to derive the IC50 value.

Human recombinant MMP14 = Human recombinant MMP14 (Homo sapiens, UniProt P50281); assay: MMP14 (MTI-MMP) inhibition, 14C collagen release; type: biochemical; settings: 35° C., 15 hours; read-out: MMP-14 inhibitory activity, IC50
Method: Protocol for Measuring MMP14 (MTI-MMP) Inhibition by Tetracycline Derivatives
MMP14 activity was determined by the release of soluble ^14C labelled collagen fragments from ^14C acetylated rat skin type I collagen (Methods in Enzymology 80 711, 1981).
• 100 μg ^14C labelled collagen (5–6000 dpm) • 50 mM Tris HCL pH 7.9 • 15 mM CaCl2 0.02% azide • Human recombinant MMP14 50–100 nM • ±Tetracycline (up to 1 mM) in a total volume of 300 μl.
Incubations were at 35° C. for 15 hours. Uncleaved collagen fibrils (which form within the first 10 minutes) were removed by centrifugation at 10,000 g 4° C. 10 minutes 200 μl supernatant were counted in Packard Opti Phase Supermix scintillation fluid using a scintillation counter. Only data derived from within the linear part of the assay (10–70% lysis of the collagen) were utilized. Based on percentage inhibition of the activity of MMP1 alone by a range of concentrations of each sample, the IC50 value for each tetracycline was calculated.

[1] = Dunning MAT LyLu tumor model, weekly body weight; type: in vivo; settings: compared to the control group
Method: as §2, §3

[2] = test system: PC-3 ML human prostate cancer cells; assay: Membrane Invasion Culture System (MICS) chemo-invasion assay; type: cell-based; settings: 24 hours, + = increased invasiveness
Method in brief: (§1)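 Fifty thousand cells were seeded above a 35 μm laminin/collagen IV/gelatin barrier on a 10 μm-pore filter, with serum-free RPMI plus 50% fibroblast-conditioned medium below as chemoattractant. Compound at 1, 10 or 25 μg/ml, or DMSO vehicle, was present for 24 h. Invaded cells were collected, Wright-stained and counted over 5 fields.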

[3] = test system: Arp-1 human myeloma cancer cells; assay: as above; type: cell-based; settings: 24 hours, + = increased invasiveness
Method in brief: as §1

[4] = test system: Ark human myeloma cancer cells; assay: as above; type: cell-based; settings: 24 hours, + = increased invasiveness
Method in brief: as §1

[5] = test system: RPMI-8226 human myeloma cancer cells; assay: as above; type: cell-based; settings: 24 hours, + = increased invasiveness
Method in brief: as §1

[6] = test system: MDA-MB-231 human breast cancer cells; assay: as above; type: cell-based; settings: 24 hours, + = increased invasiveness
Method in brief: as §1

[7] = test system: C8161 human melanoma cells; assay: as above; type: cell-based; settings: 24 hours, + = increased invasiveness
Method in brief: as §1

Human recombinant MMP7 = molecular target: T3, Human recombinant MMP7 (Homo sapiens, UniProt P09237); assay: MMP7 (Matrilysin) inhibition, 14C casein release; type: biochemical; settings: 37° C., 16 hours; read-out: MMP-7 inhibitory activity, IC50
T3 sequence (P09237 95-267): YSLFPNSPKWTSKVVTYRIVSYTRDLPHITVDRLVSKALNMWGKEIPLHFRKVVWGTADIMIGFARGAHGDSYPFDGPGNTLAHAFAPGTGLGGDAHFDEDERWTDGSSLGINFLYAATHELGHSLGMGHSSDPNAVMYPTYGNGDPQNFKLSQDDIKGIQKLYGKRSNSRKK
Method: MMP7 activity was determined by the release of trichloracetic acid, TCA, soluble fragments from ^14C acetylated β casein (Sigma) as described in Methods in Enzymology 248, 451 (1995).
• 100 μg ^14C casein (7000 dpm) • 50 mM Tris HCl, pH 7.9 • 15 mM CaCl2, 0.02% azide • Human recombinant MMP7, 1.5 nM • ±tetracycline (up to 1 mM) in a total volume of 250 μl.
Incubations were at 37° C. for 16 hours. The incubation was stopped by the addition of 500 μl cold 18% TCA and standing on ice for 15 minutes. TCA precipitates were removed by centrifugation at 10,000 g for 10 minutes at 4° C., and 200 μl supernatant was taken for scintillation counting. Only data derived from within the linear part of the assay (10–60% lysis) were utilized. The percentage inhibition of MMP7 by each concentration of the candidate tetracycline were plotted to derive the IC50 value.

[8] = 14 days post tumor implantation
[9] = 17 days post tumor implantation
[10] = 24 days post tumor implantation
[11] = 27 days post tumor implantation
[12] = 28 days post tumor implantation
[13] = 29 days post tumor implantation
[14] = 30 days post tumor implantation
[15] = 34 days post tumor implantation
[16] = 42 days post tumor implantation

Row | SMILES | IC50 (MMP2 (Gelatinase A)) | IC50 (Human recombinant MMP1) | Surviving Number (MAT LyLu tumor; [8]) | Surviving Number (MAT LyLu tumor; [9]) | Surviving Number (MAT LyLu tumor; [10]) | Surviving Number (MAT LyLu tumor; [11]) | Surviving Number (MAT LyLu tumor; [12]) | Surviving Number (MAT LyLu tumor; [13]) | Surviving Number (MAT LyLu tumor; [14]) | Surviving Number (MAT LyLu tumor; [15]) | Surviving Number (MAT LyLu tumor; [16]) | surviving number after tumor implantation (in words) (MAT LyLu tumor) | IC50 (Human recombinant MMP3) | IC50 (Human recombinant MMP9) | IC50 (Human recombinant MMP14) | body weight changes [1] | percent inhibition, ARP-1 ([3]; 1 ug/mL) | percent inhibition, ARP-1 ([3]; 10 ug/mL) | percent inhibition, ARP-1 ([3]; 25 ug/mL) | percent inhibition, ARK ([4]; 1 ug/mL) | also measured
1 | CC1c2ccc([N+](=O)[O-])c(O)c2C(=O)C2=C(O)C3(O)C(=O)C(C(N)=O)=C(O)C(N(C)C)C3C(O)C21 (centres unmarked) [Compound 1, 9-nitro-6-deoxy-5-hydroxytetracycline H2SO4] | > 700 µM | 267 µM | 8 | 8 | 8 | 8 | 8 | 6 | 4 | 4 | 4 | marked increase in surviving number | 258 µM | 43 µM | 86 µM | indistinguishable body weight changes | +9% | +13% | 1% | 9% and 13% | percent inhibition, PC-3 ML (Prostrate) ([2]; 10 ug/mL): 47^B percent and 24^B percent; percent inhibition, RPMI-8226 (Multiple Myeloma) ([5]; 1 ug/mL): 20% and 21^B percent; percent inhibition, RPMI-8226 (Multiple Myeloma) ([5]; 25 ug/mL): 15% and 29^B percent; percent inhibition, MDA-MB-231 (Breast) ([6]; 10 ug/mL): 20^B percent and 25^B percent; percent inhibition, C8161 (Melanoma) ([7]; 25 ug/mL): 35^B percent and 56^B percent; IC50 (Human recombinant MMP7): 815 µM
2 | CC1c2ccc(N)c(O)c2C(=O)C2=C(O)C3(O)C(=O)C(C(N)=O)=C(O)C(N(C)C)C3C(O)C21 (centres unmarked) [Compound 2, 9-amino-6-deoxy-5-hydroxytetracycline H2SO4] | – | – | 10 | 10 | 10 | 10 | 9 | 9 | 7 | 7 | 7 | marked increase in surviving number | – | – | – | indistinguishable body weight changes | 10% | 7% | 6% | 20^B percent | percent inhibition, PC-3 ML (Prostrate) ([2]; 1 ug/mL): 20%; percent inhibition, PC-3 ML (Prostrate) ([2]; 10 ug/mL): 8%; percent inhibition, PC-3 ML (Prostrate) ([2]; 25 ug/mL): 15%; percent inhibition, ARK ([4]; 10 ug/mL): 9^B percent; percent inhibition, ARK ([4]; 25 ug/mL): 10%; percent inhibition, RPMI-8226 (Multiple Myeloma) ([5]; 25 ug/mL, listed as 5): 36% and 42^B percent; percent inhibition, MDA-MB-231 (Breast) ([6]; 1 ug/mL): 20%; percent inhibition, MDA-MB-231 (Breast) ([6]; 10 ug/mL): 15%; percent inhibition, MDA-MB-231 (Breast) ([6]; 25 ug/mL): 30^B percent; percent inhibition, C8161 (Melanoma) ([7]; 1 ug/mL): 20^B percent; percent inhibition, C8161 (Melanoma) ([7]; 10 ug/mL): 25^B percent; percent inhibition, C8161 (Melanoma) ([7]; 25 ug/mL): 27^B percent
3 | CN(C)c1cc([N+]#N)c(O)c2c1CC1CC3C(N(C)C)C(O)=C(C(N)=O)C(=O)C3(O)C(O)=C1C2=O (centres unmarked) [Compound 9, 7-dimethylamino-6-demethyl-6-deoxytetracycline-9-diazonium H2SO4 HCL] | 337 µM | 372 µM | – | – | – | – | – | – | – | – | – | – | 154 µM | 28 µM | 29 µM | – | +14% | +21^B percent | 7% | 17^B percent | percent inhibition, ARK ([4]; 10 ug/mL): 24^B percent; percent inhibition, ARK ([4]; 25 ug/mL): 20^B percent; percent inhibition, RPMI-8226 (Multiple Myeloma) ([5]; 1 ug/mL): 21^B percent; percent inhibition, RPMI-8226 (Multiple Myeloma) ([5]; 10 ug/mL): 24^B percent; percent inhibition, RPMI-8226 (Multiple Myeloma) ([5]; 25 ug/mL): 28^B percent; IC50 (Human recombinant MMP7): 507 µM

Source: patent publication US7214669B2, “Tetracycline derivatives and methods of use thereof” (Tetragenex Pharmaceuticals, Inc., priority 2001, dated 2007)
